Inhibition data for one compound are collected here from PMC6704710, “Preclinical evaluation of 3D185, a novel potent inhibitor of FGFR1/2/3 and CSF-1R, in FGFR-dependent and macrophage-dominant cancer models” (Journal of Experimental & Clinical Cancer Research : CR, 2019).

Common to all, as to experiment: Eurofins kinase panel
Holding throughout (assay type): biochemical
Holding throughout (details): read-out: Inhibition rate (%)

In one test the target is T1, ALK2(h) (Homo sapiens, UniProt Q04771).
T1 construct: purchased Eurofins (KinaseProfiler)
T1 sequence (Q04771 21-509): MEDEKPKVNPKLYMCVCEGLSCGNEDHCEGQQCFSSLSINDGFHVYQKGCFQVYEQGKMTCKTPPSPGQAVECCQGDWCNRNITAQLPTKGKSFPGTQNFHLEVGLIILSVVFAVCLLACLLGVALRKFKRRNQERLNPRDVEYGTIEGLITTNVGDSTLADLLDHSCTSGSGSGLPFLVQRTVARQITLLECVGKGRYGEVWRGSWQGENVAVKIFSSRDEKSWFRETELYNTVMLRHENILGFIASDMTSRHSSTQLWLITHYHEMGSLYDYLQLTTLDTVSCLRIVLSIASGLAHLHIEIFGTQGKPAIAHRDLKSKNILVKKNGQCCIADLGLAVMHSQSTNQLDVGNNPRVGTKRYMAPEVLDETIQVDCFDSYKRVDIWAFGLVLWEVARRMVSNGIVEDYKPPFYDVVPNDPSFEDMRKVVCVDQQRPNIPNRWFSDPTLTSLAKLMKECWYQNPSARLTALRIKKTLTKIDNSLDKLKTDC

Another test addresses T2, BrSK2(h) (Homo sapiens, UniProt Q8IWQ3).
T2 construct: purchased Eurofins (KinaseProfiler)
T2 sequence (Q8IWQ3 1-736): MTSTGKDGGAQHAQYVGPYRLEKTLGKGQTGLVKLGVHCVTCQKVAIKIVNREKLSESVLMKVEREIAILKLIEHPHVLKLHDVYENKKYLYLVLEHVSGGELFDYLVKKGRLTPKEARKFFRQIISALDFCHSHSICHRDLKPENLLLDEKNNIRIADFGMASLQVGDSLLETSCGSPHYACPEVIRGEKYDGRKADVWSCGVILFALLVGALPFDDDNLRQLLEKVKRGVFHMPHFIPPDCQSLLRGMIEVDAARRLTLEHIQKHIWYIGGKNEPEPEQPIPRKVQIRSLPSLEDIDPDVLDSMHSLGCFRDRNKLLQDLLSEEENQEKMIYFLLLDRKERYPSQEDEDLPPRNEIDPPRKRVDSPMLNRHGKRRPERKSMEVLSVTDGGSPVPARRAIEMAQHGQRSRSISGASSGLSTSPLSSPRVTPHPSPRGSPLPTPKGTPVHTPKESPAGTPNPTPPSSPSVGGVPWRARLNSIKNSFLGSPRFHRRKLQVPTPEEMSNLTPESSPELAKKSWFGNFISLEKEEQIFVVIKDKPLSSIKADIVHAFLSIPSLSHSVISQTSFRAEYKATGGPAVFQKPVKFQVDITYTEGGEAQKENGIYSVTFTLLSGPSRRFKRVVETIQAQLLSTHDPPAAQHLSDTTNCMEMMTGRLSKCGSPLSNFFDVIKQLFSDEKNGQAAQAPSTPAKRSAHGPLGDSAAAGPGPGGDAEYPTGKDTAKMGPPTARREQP

In a further test the target is T3, CDKL1(h) (Homo sapiens, UniProt Q00532).
T3 construct: purchased Eurofins (KinaseProfiler)

The target of the next test is T4, PKCμ(h) (Homo sapiens, UniProt Q15139).
T4 construct: purchased Eurofins (KinaseProfiler)
T4 sequence (Q15139 1-912): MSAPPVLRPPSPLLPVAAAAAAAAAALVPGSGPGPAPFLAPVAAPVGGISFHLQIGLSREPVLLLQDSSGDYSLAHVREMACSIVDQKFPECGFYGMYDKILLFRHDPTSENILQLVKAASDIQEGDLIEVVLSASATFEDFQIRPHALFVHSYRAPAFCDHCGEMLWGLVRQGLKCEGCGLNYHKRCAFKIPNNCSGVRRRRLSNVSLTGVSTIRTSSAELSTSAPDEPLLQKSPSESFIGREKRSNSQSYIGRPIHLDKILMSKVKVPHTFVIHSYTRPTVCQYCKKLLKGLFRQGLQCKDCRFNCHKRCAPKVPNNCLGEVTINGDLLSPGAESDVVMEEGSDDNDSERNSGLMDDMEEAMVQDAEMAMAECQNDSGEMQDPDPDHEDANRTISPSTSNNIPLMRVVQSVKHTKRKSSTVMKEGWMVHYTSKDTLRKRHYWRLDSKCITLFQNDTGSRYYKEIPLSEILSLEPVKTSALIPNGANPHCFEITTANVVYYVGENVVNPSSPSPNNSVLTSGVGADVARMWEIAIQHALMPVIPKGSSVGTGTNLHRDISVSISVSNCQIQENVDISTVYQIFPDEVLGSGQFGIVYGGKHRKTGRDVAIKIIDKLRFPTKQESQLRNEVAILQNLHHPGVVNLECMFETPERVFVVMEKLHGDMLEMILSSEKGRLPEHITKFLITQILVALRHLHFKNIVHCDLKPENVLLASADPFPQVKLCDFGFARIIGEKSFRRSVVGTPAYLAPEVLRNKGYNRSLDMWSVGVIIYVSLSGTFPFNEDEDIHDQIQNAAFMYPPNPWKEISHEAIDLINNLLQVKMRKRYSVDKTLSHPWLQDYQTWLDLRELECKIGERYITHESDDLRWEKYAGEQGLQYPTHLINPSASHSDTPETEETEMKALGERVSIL

T3 sequence (Q00532 whole entry): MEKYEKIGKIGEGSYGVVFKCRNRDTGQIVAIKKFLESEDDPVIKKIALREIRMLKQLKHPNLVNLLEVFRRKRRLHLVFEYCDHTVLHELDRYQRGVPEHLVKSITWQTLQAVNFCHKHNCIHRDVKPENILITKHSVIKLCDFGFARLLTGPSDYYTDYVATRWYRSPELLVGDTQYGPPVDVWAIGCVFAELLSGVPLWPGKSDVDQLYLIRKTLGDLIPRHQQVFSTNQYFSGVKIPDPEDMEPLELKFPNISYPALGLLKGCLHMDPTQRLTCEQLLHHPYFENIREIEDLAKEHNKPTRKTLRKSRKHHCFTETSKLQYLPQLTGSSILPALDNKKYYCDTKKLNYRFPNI

As for `COc1cc(OC)c(Cl)c(-c2ccc3c(NC(=O)c4ccc(N5CCNC(C)(C)C5)cc4)n[nH]c3n2)c1Cl` [3D185], the inhibition (commonly the relative decrease from the control value, in per cent) at 0.01 µM on ALK2(h) (10 nM) was -10%; at BrSK2(h) (10 nM), 8%; on CDKL1(h) (10 nM), 3%; at PKCμ(h) (10 nM), -2%. For the same compound, the inhibition at 0.1 µM is -15% on ALK2(h) (100 nM), 5% at BrSK2(h) (100 nM), -5% at CDKL1(h) (100 nM) and 2% at PKCμ(h) (100 nM). Further, the inhibition at 1 µM on ALK2(h) (1000 nM) was -4%; at BrSK2(h) (1000 nM) it was 11%; at CDKL1(h) (1000 nM), 0%; at PKCμ(h) (1000 nM), 11%.
